Experimental data as given in patent publication US10441663B2, “Methods for treating cancer” (Bicycle Therapeutics Limited, priority 2016, dated 2019).
*1 amine or outer side, *2 acyl side, *3 side chain or, on linkers, in order; H or OH if unused. Where a SMILES comes first, the peptide text is derived from it. Bridges are numbered along the chain shown (N, C = ends). [ ]: non-standard residue; d: D form. The star is where a group is joined. X1 = COc1cc2cc(c1Cl)N(C)C(=O)C[C@H](OC(=O)[C@H](C)N(C)C(=O)CCSSC(C)CCC(=O)*)[C@]1(C)O[C@H]1[C@H](C)[C@@H]1C[C@@](O)(NC(=O)O1)[C@H](OC)/C=C/C=C(\C)C2; 1Nal = N[C@@H](Cc1cccc2ccccc12)C(=O)O; TBMB = c1c(C[*:1])cc(C[*:3])cc1C[*:2]; Tle = CC(C)(C)[C@H](N)C(=O)O; βAla = NCCC(=O)O; Sar = CNCC(=O)O

Key:
[1] = test system: MT1-positive tumor xenograft models (e.g. HT1080 fibrosarcoma; HCC1806 triple negative breast cancer; SNU-16 gastric cancer); assay: Selection of MT1-positive tumor xenograft models; type: in vivo
Excerpt: (§1) Efficacy in this model was reduced in the conjugates containing the least cleavable linkers.

[2] = Preliminary metabolism studies; type: in vivo
Excerpt: as §1

In the case of `COc1cc2cc(c1Cl)N(C)C(=O)C[C@H](OC(=O)[C@H](C)N(C)C(=O)CCSSC(C)CCC(=O)NCCC(=O)N(C)CC(=O)N(C)CC(=O)N(C)CC(=O)N(C)CC(=O)N(C)CC(=O)N(C)CC(=O)N(C)CC(=O)N(C)CC(=O)N(C)CC(=O)N(C)CC(=O)N[C@@H](C)C(=O)N[C@H]1CSCc3cc4cc(c3)CSC[C@H](NC(=O)[C@@H](C)NC(=O)[C@H](Cc3cccc5ccccc35)NC(=O)[C@H](CCC(=O)O)NC(=O)[C@H](CC(N)=O)NC(=O)[C@@H](C)NC1=O)C(=O)N[C@@H](CCC(=O)O)C(=O)N[C@@H](CC(=O)O)C(=O)N[C@@H](Cc1ccccc1)C(=O)N[C@@H](Cc1ccc(O)cc1)C(=O)N[C@@H](CC(=O)O)C(=O)N[C@@H](C(C)(C)C)C(=O)N[C@H](C(N)=O)CSC4)[C@]1(C)O[C@H]1[C@H](C)[C@@H]1C[C@@](O)(NC(=O)O1)[C@H](OC)/C=C/C=C(\C)C2` (stereo partly drawn) [BT1718] ({X1-βAla}-[Sar][Sar][Sar][Sar][Sar][Sar][Sar][Sar][Sar][Sar]AC[dA]NE[1Nal][dA]CEDFYD[Tle]C-NH2; linker 12-18-25 via TBMB (inferred)), the tumor response ([1]; 10 mg/kg twice weekly) is reported as “complete regressions in most models”, the minimally effective doses ([1]; weekly or twice weekly) is reported as 3 to 10 mg/kg and the route of excretion [2] is reported as “excreted mainly through the kidney in urine”.
